Laboratory results reported in PMC11345829, “Discovery of Potent Isoquinolinequinone N-Oxides to Overcome Cancer Multidrug Resistance” (Journal of Medicinal Chemistry, 2024).

Assays:
NCI-H460 cells = assay: ROS accumulation, CM-H2DCFDA flow cytometry; format: cell-based, human; conditions: 6 h; 0.7, 1 and 5 μM; concentration dependent
Description: To uncover the mechanisms of action of 25, we analyzed the cellular accumulation of ROS by flow cytometry, using a fluorescent marker of ROS, 5-(and-6)-chloromethyl-2′,7′-dichlorodihydrofluorescein diacetate acetyl ester (CM-H2DCFDA). […] Importantly, this effect was concentration dependent.
Figure 6 Effect of the compound 25 on ROS accumulation in NCI-H460 cells. […] Results are presented as mean fluorescence values, normalized to the blank. Data are expressed as mean ± SEM from at least 3 independent experiments.
To study the effect of compound 25 on ROS levels, 5-(and-6)-chloromethyl-2′,7′-dichlorodihydrofluorescein diacetate, acetyl ester (CM-H2DCFDA; Invitrogen) analysis by flow cytometry was performed in the drug-sensitive cells. NCI-H460 cells (1.5 × 10^5/mL) were plated in 6-well plates for 24 h. […] Harvested cells were subsequently washed twice in phosphate-buffered saline (PBS) and the CM-H2DCFDA fluorescence was analyzed in a BD AccuriTM flow cytometer (BD Biosciences, San Jose, California, USA). Mean fluorescence intensity was calculated after correction for autofluorescence.

A549 = assay: SRB cell growth inhibition assay; format: cell-based; conditions: Homo sapiens, 48 h, NSCLC, read-out: GI50 ± SEM A549
Protocol: (§1) Two pairs of drug-sensitive and multidrug-resistant (MDR) cell lines from human nonsmall cell lung cancer (NSCLC), NCI-H460 and NCI-H460/R, and colorectal cancer, DLD1 and DLD1-TxR, kindly provided by Dr M. Pešić (Belgrade, Serbia), were used to evaluate the growth inhibition potential of the compounds 1, 2, 3, 4, 5, 20, 23, 24, an 25.[76],[77] Additionally, growth inhibition assays were performed with compound 25 on two other NSCLC cell lines, A549 and NCI-H322, obtained from the American Type Culture Collection (ATCC) and the European Collection of Authenticated Cell Cultures, respectively. The A549 cell line was maintained in Dulbecco’s Modified Eagle Medium (DMEM) supplemented with 4.5 g/L Glucose with UltraGlutamine with sodium pyruvate (Lonza, Basel Stücki, Switzerland), enriched with 10% fetal bovine serum (FBS; Biowest, Nuaillé, France). […]
(§2) Cells were seeded at a previously determined optimal cell concentration (5.0 × 10^4 cells/mL for NSCLC cells and the nontumorigenic MRC-5 cell line and 1.0 × 10^5 cells/mL for colorectal cancer cells) and incubated at 37 °C for 24 h. […] Absorbance was measured at 510 nm in a multiplate reader (Synergy Mx, Biotek Instruments Inc., Winooski, Vermont, USA) using the Gen5 software (Biotek Instruments Inc.).

NCI-H322 [1] = assay: SRB cell growth inhibition assay; format: cell-based; conditions: Homo sapiens, 48 h, NSCLC, read-out: GI50 ± SEM NCI-H322
Protocol: as §1, §2

NCI-H322 [2] = assay: NCI60 five-dose GI50 (NCI data); format: cell-based; conditions: Homo sapiens, SI Table S20
Description: The concentration−response curve generated enables the determination of three criteria, GI50 (drug concentration at which 50% of cell growth is inhibited), total growth inhibition (TGI) and LC50 (drug concentration at which 50% of tumor cells are killed) which can be used to compare effectiveness against any compound tested in the screen since its inception.
S2.1 NCI Screening Assay Experimental details
NCI Screening Assay Experimental: Cancer cell growth assays (NCI60 screening) 5,6 One-dose study: Tested compounds were initially solubilised in DMSO, diluted into RPMI 1640 and 5% fetal bovine serum/L-glutamine, and added to 96-well plates containing cell lines previously cultured for 24 h. After 48 h incubation, the media were removed, and the cells were fixed and stained with sulforhodamine B to determine overall percent growth/ total protein content. Unbound dye was removed with five washes of 1% acetic acid, and the plates were allowed to air dry. The dye was then resolubilised in Tris buffer, and the colorimetric absorbance was measured (515 nm). Growth inhibition was measured relative to the response generated from proliferating cells cultured under identical conditions for 48 h. Data from one-dose experiments pertains to the percentage growth at […]
Five-dose study: Serial 5 × 10-fold dilution from an initial DMSO stock solution was performed, prior to incubation at each individual concentration (10 nM, 100 nM, 1 μM, 10 μM and 100 μM). Using seven absorbance measurements (time zero (Tz), control growth (C), and test growth in the presence of drug at the five concentration levels (Ti)), the percentage growth was calculated at each of the drug concentrations levels. Percentage growth inhibition was calculated as: [(Ti − Tz)/(C − Tz)] × 100 for concentrations for which Ti ≥ Tz, [(Ti − Tz)/Tz] × 100 for concentrations for which Ti < Tz. Three dose response parameters were calculated for each experimental agent. […]
was calculated from [(Ti − Tz)/(C − Tz)] × 100 = 50, which is the drug concentration resulting in a 50% reduction in the net protein increase (as measured by sulforhodamine B staining) in control cells during the drug incubation. The drug concentration resulting in total growth inhibition (TGI) was calculated from Ti = Tz. The LC50 (concentration of drug resulting in a 50% reduction in the measured protein at the end of the drug treatment as compared to that at the beginning) indicating a net loss of cells following treatment was calculated from [(Ti − Tz)/Tz] × 100 = −50. Values were calculated for each of these three parameters if the level of activity was reached; however, if the effect was not reached or was exceeded, the value for that parameter was expressed as greater or less than the maximum or minimum concentration tested.

GI50 (A549): 220 ± 20 nM
GI50 (NCI-H322 [1]): 450 ± 60 nM
SMILES: COC(=O)c1c2c(c[n+]([O-])c1C)C(=O)C=C(NCc1ccccc1)C2=O [Compound 25]
ROS accumulation (fluorescence intensity) (NCI-H460 cells): statistically significant increase on fluorescence intensity
GI50 (NCI-H322 [2]): 174 nM
